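Values below derive from 48-hour exposures of cells grown in 96-well plates, with endpoints linearly interpolated between the two concentrations bracketing the appropriate inhibition level. Abbreviation: GI50, concentration required for 50% inhibition of growth. TGI: concentration producing complete growth inhibition.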
What was measured:
Experiment in all cases: inhibition of tumour cell growth, NCI panel, 48 h
MDA-MB-435 = tested on: MDA-MB-435
OVCAR-4 ovarian = tested on: OVCAR-4 ovarian
SNB-19 CNS = tested on: SNB-19 CNS
HCT-15 colon = tested on: HCT-15 colon
RXF 393 renal = tested on: RXF 393 renal
UACC-257 melanoma = tested on: UACC-257 melanoma
HT29 colon = tested on: HT29 colon
786-0 renal = tested on: 786-0 renal
HOP-62 NSCLC = tested on: HOP-62 NSCLC
DU-145 prostate = tested on: DU-145 prostate
ACHN renal = tested on: ACHN renal
MALME-3M melanoma = tested on: MALME-3M melanoma
A498 renal = tested on: A498 renal
SF-539 CNS = tested on: SF-539 CNS
MDA-MB-231 breast = tested on: MDA-MB-231 breast
MCF7 breast = tested on: MCF7 breast
NCI/ADR-RES ovarian = tested on: NCI/ADR-RES ovarian
SF-295 CNS = tested on: SF-295 CNS
LOX IMVI melanoma = tested on: LOX IMVI melanoma
BT-549 breast = tested on: BT-549 breast
SN12C renal = tested on: SN12C renal
SR leukemia = tested on: SR leukemia
K-562 leukemia = tested on: K-562 leukemia
MOLT-4 leukemia = tested on: MOLT-4 leukemia
SK-MEL-5 melanoma = tested on: SK-MEL-5 melanoma
SK-MEL-2 melanoma = tested on: SK-MEL-2 melanoma
COLO 205 colon = tested on: COLO 205 colon
OVCAR-5 ovarian = tested on: OVCAR-5 ovarian
NCI-H522 lung = tested on: NCI-H522 lung
HCC-2998 colon = tested on: HCC-2998 colon
SK-MEL-28 melanoma = tested on: SK-MEL-28 melanoma
EKVX NSCLC = tested on: EKVX NSCLC
PC-3 prostate = tested on: PC-3 prostate
HCT-116 colon = tested on: HCT-116 colon
HS 578T breast = tested on: HS 578T breast
SNB-75 CNS = tested on: SNB-75 CNS
M14 melanoma = tested on: M14 melanoma
CAKI-1 renal = tested on: CAKI-1 renal
NCI-H460 lung = tested on: NCI-H460 lung
HL-60(TB) leukemia = tested on: HL-60(TB) leukemia
NCI-H23 lung = tested on: NCI-H23 lung
CCRF-CEM leukemia = tested on: CCRF-CEM leukemia
SF-268 CNS = tested on: SF-268 CNS
UACC-62 melanoma = tested on: UACC-62 melanoma
NCI-H226 lung = tested on: NCI-H226 lung
A549 NSCLC = tested on: A549 NSCLC
SW-620 colon = tested on: SW-620 colon
KM12 colon = tested on: KM12 colon
OVCAR-8 ovarian = tested on: OVCAR-8 ovarian
TK-10 renal = tested on: TK-10 renal
SK-OV-3 ovarian = tested on: SK-OV-3 ovarian
OVCAR-3 ovarian = tested on: OVCAR-3 ovarian
T-47D breast = tested on: T-47D breast
UO-31 renal = tested on: UO-31 renal
IGROV1 ovarian = tested on: IGROV1 ovarian
U251 CNS = tested on: U251 CNS

Oc1ccc(/C=C/c2ccc(O)cc2)cc1
GI50 (MDA-MB-435): 6.64 µM
TGI (MDA-MB-435): > 100 µM
GI50 (OVCAR-4 ovarian): 8.78 µM
TGI (OVCAR-4 ovarian): > 100 µM
GI50 (SNB-19 CNS): 18.2 µM
TGI (SNB-19 CNS): > 100 µM
GI50 (HCT-15 colon): 3.13 µM
TGI (HCT-15 colon): > 100 µM
GI50 (RXF 393 renal): 2.94 µM
TGI (RXF 393 renal): > 100 µM
GI50 (UACC-257 melanoma): 18.6 µM
TGI (UACC-257 melanoma): > 100 µM
GI50 (HT29 colon): 29 µM
TGI (HT29 colon): > 100 µM
GI50 (786-0 renal): 2.17 µM
TGI (786-0 renal): 7.93 µM
GI50 (HOP-62 NSCLC): 5.59 µM
TGI (HOP-62 NSCLC): > 96.5 µM
GI50 (DU-145 prostate): 3.84 µM
TGI (DU-145 prostate): 44 µM
GI50 (ACHN renal): 1.25 µM
TGI (ACHN renal): > 61.7 µM
GI50 (MALME-3M melanoma): 18.1 µM
TGI (MALME-3M melanoma): > 100 µM
GI50 (A498 renal): 10.3 µM
TGI (A498 renal): 99.6 µM
GI50 (SF-539 CNS): 2.45 µM
TGI (SF-539 CNS): 8.8 µM
GI50 (MDA-MB-231 breast): 2.78 µM
TGI (MDA-MB-231 breast): > 100 µM
GI50 (MCF7 breast): 4.41 µM
TGI (MCF7 breast): > 100 µM
GI50 (NCI/ADR-RES ovarian): 3.25 µM
TGI (NCI/ADR-RES ovarian): > 95.4 µM
GI50 (SF-295 CNS): 5.91 µM
TGI (SF-295 CNS): > 84.7 µM
GI50 (LOX IMVI melanoma): 2.85 µM
TGI (LOX IMVI melanoma): 20.4 µM
GI50 (BT-549 breast): 1.26 µM
TGI (BT-549 breast): > 90 µM
GI50 (SN12C renal): 2.97 µM
TGI (SN12C renal): > 100 µM
GI50 (SR leukemia): 0.204 µM
TGI (SR leukemia): 0.703 µM
GI50 (K-562 leukemia): 2.65 µM
TGI (K-562 leukemia): > 100 µM
GI50 (MOLT-4 leukemia): 2.18 µM
TGI (MOLT-4 leukemia): 45.1 µM
GI50 (SK-MEL-5 melanoma): 3.04 µM
TGI (SK-MEL-5 melanoma): > 68.3 µM
GI50 (SK-MEL-2 melanoma): 9.79 µM
TGI (SK-MEL-2 melanoma): > 89.2 µM
GI50 (COLO 205 colon): > 55.1 µM
TGI (COLO 205 colon): > 100 µM
GI50 (OVCAR-5 ovarian): 28.9 µM
TGI (OVCAR-5 ovarian): > 100 µM
GI50 (NCI-H522 lung): 0.465 µM
TGI (NCI-H522 lung): 1.71 µM
GI50 (HCC-2998 colon): 3.59 µM
TGI (HCC-2998 colon): 18 µM
GI50 (SK-MEL-28 melanoma): 30.1 µM
TGI (SK-MEL-28 melanoma): > 100 µM
GI50 (EKVX NSCLC): 9.15 µM
TGI (EKVX NSCLC): > 100 µM
GI50 (PC-3 prostate): 4.02 µM
TGI (PC-3 prostate): > 100 µM
GI50 (HCT-116 colon): 4.28 µM
TGI (HCT-116 colon): > 100 µM
GI50 (HS 578T breast): 4.09 µM
TGI (HS 578T breast): > 83.9 µM
GI50 (SNB-75 CNS): 1.89 µM
TGI (SNB-75 CNS): > 100 µM
GI50 (M14 melanoma): 3.82 µM
TGI (M14 melanoma): 58.9 µM
GI50 (CAKI-1 renal): 3.5 µM
TGI (CAKI-1 renal): > 24.1 µM
GI50 (NCI-H460 lung): 3.37 µM
TGI (NCI-H460 lung): > 100 µM
GI50 (HL-60(TB) leukemia): 0.252 µM
TGI (HL-60(TB) leukemia): 0.738 µM
GI50 (NCI-H23 lung): 3.82 µM
TGI (NCI-H23 lung): > 90.5 µM
GI50 (CCRF-CEM leukemia): 0.219 µM
TGI (CCRF-CEM leukemia): 0.761 µM
GI50 (SF-268 CNS): 2.15 µM
TGI (SF-268 CNS): > 94.7 µM
GI50 (UACC-62 melanoma): 2.36 µM
TGI (UACC-62 melanoma): 16.9 µM
GI50 (NCI-H226 lung): 5.63 µM
TGI (NCI-H226 lung): > 100 µM
GI50 (A549 NSCLC): 2.69 µM
TGI (A549 NSCLC): > 38.5 µM
GI50 (SW-620 colon): 7.52 µM
TGI (SW-620 colon): > 100 µM
GI50 (KM12 colon): 2.73 µM
TGI (KM12 colon): > 80.7 µM
GI50 (OVCAR-8 ovarian): 2.44 µM
TGI (OVCAR-8 ovarian): > 61.1 µM
GI50 (TK-10 renal): 9.62 µM
TGI (TK-10 renal): > 100 µM
GI50 (SK-OV-3 ovarian): 16.1 µM
TGI (SK-OV-3 ovarian): > 100 µM
GI50 (OVCAR-3 ovarian): 0.971 µM
TGI (OVCAR-3 ovarian): > 92.1 µM
GI50 (T-47D breast): 5.7 µM
TGI (T-47D breast): > 100 µM
GI50 (UO-31 renal): 1.38 µM
TGI (UO-31 renal): > 100 µM
GI50 (IGROV1 ovarian): 0.72 µM
GI50 (U251 CNS): 3.09 µM
TGI (U251 CNS): > 100 µM

Source: PubChem BioAssay (NCI)
